According to patent publication US20050233313A1, “Methods and reagents for identifying inhibitors of viral protease activity” (priority 2002, published 2005):

What follows are substances tested on β-galactosidase substrate with HIV protease cleavage site (assay: cleavage of a β-galactosidase substrate by processed PR expressed from pMono in E. coli, Western blot). Conditions: single alanine substitutions in processed monomeric PR; full-length β-galactosidase cleavage, average of two or more inductions.
Type: cell-based
From the text: Plasmid pMono expresses wild-type or mutated monomeric protease from the tac promoter (Amann et al. (1983) Gene 25:167-178) in Escherichia coli and was derived from plasmid P1+IQ (Baum et al. (1990) Proc. Natl. Acad. Sci. USA 87:10023-10027). Protease sequences in P1+1Q were replaced by a linker of 5′ XhoI-XbaI-SalI-PstI 3′ to produce p1CVx. Wild-type or mutated protease sequences were obtained from pET-PR by PCR with primers 5′Xho (AATATA-CTCGAG-[…], SEQ ID NO: 1) and 3′Xba (ATAAAT-TCTAGA-[…], SEQ ID NO: 2) and were inserted into p1CVx to produce pMono. The phagemid pET-PR contains the 99-residue coding domain of the monomeric protease (HXB2 isolate [Ratner et al. (1987) AIDS Res. Hum. Retrovir. 3:57-69]) inserted into the NdeI-BamHI sites of pET24a (Novagen). The Kunkel method using single-stranded templates of pET-PR substituted with uracil was employed for site-directed mutagenesis (Bebenek and Kunkel (1989) Nucleic Acids Res. 17:5408, Kunkel et al. (1991) Methods Enzymol204:125-139). Mutations were confirmed by DNA sequencing prior to transfer of the protease sequences into p1CVx.
Uninduced mid-log-phase (optical density at 600 nm=0.5) cultures of lac-E. coli strain MC1061 carrying pMono were grown in yeast-tryptone medium to produce samples for Western blot analysis. Cells were pelleted, resuspended in 400 μl of sodium dodecyl sulfate (SDS)-polyacrylamide gel electrophoresis (PAGE) sample buffer (Pettit et al. (1991) J. Biol. Chem. 266:14539-14547) (optical density at 600 nm=˜0.5), and heated to 95° C. for 4 min. SDS-PAGE was performed on Tris-glycine gels (7.5% polyacrylamide) (Laemmli (1970) Nature […]). Separated proteins were bound to nitrocellulose by electrotransfer, blocked for 1 h with 3% bovine serum albumin in Tris-buffered saline-0.1% Tween 20, and probed with anti-β-galactosidase monoclonal antibody (Boehringer) at a 1:5,000 dilution. Following multiple washes in Tris-buffered saline-0.1% Tween 20, β-galactosidase was detected with the ECL Plus system followed by autoradiography according to the instructions of the manufacturer (Amersham Pharmacia). The extent of β-galactosidase cleavage was determined by densitometric measurement on a Molecular Dynamics Storm model 800 Phosphorlmager. For scanning, the Phosphorlmager was set in the blue fluorescence and chemifluorescence mode with a photomultiplier tube voltage of 700 V. The final value for percent cleavage of the β-galactosidase substrate was determined by taking the average of two or more independent inductions.
For these studies, we modified an E. coli expression system developed as described in Baum et al. (1990) Proc. Natl. Acad. Sci. USA 87:10023-10027. The vector (pMono) expresses HIV protease and the β-galactosidase gene. A cleavage cassette consisting of a decapeptide corresponding to an HIV protease cleavage site was inserted into the β-galactosidase open reading frame. In this system, enzyme activity may be assessed via Western blotting as the percent cleavage of full-length β-galactosidase.

| Substance | % Cleavage [%] |
| --- | --- |
| T96A: processed HIV-1 protease with single alanine substitution of dimer interface residue Thr 96 | 14 |
| F99A: processed HIV-1 protease with single alanine substitution of dimer interface residue Phe 99 | 0 |
| L97A: processed HIV-1 protease with single alanine substitution of dimer interface residue Leu 97 | 0 |
| P1A: processed HIV-1 protease with single alanine substitution of dimer interface residue Pro 1 | 92 |
| T4A: processed HIV-1 protease with single alanine substitution of dimer interface residue Thr 4 | 96 |
| N98A: processed HIV-1 protease with single alanine substitution of dimer interface residue Asn 98 | 68 |
| D25A: processed HIV-1 protease with replacement of the catalytic aspartate, negative control | 0 |
| Wild type: wild-type mature 99-residue monomeric HIV-1 protease (HXB2) expressed from pMono | 96 |
| Q2A: processed HIV-1 protease with single alanine substitution of dimer interface residue Gln 2 | 96 |
